Reference: patent US7863014B2 (priority 2001, dated 2011)

Assays:
[1] = molecular target: T1, Ppnk (Mycobacterium tuberculosis, UniProt P9WHV7); experiment: Effect of NADP and ADP on NADP-producing activity of purified Ppnk; type: biochemical, M. tuberculosis; details: various levels of NADP or ADP
Description: The NADP-producing activity was assayed in the presence of various levels of NADP (solid circles) or ADP (open circles).
A reaction for producing NADP was performed in a reaction mixture solution (4.0 ml) at 37° C. with shaking. […] After the reaction for 1 hour, 10 μl of the reaction mixture was collected and enzymatically assayed for NADP using isocitrate dehydrogenase (Sigma-Aldrich Japan, Tokyo, Japan). The activity was expressed in μmol/g cells/hour.

[2] = molecular target: T1, Ppnk

T1 sequence (P9WHV7 whole entry, looked up): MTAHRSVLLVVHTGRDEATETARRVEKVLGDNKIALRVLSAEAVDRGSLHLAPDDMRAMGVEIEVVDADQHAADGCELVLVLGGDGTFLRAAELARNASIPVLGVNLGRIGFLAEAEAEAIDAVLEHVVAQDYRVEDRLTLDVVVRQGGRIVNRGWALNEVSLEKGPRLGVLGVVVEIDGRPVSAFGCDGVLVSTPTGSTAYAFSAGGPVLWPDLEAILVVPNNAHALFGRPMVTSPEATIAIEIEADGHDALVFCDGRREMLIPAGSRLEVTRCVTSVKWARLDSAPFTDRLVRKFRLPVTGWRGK

Structure (SMILES): Nc1ncnc2c1ncn2[C@@H]1O[C@H](COP(=O)(O)OP(=O)(O)O)[C@@H](O)[C@H]1O [ADP]
- inhibition of polyphosphate-dependent NAD kinase activity of Ppnk [1]: not inhibited

Structure (SMILES): [Cl-].[Cl-].[Mg+2] [MgCl2]
- Mg2+ concentration giving highest activity [2]: 100 mM
- effectiveness among metal ions (Mg2+, Mn2+, Ca2+) [2]: most effective
